Experimental findings from ChEMBL document CHEMBL3797109, “Biochemometrics for Natural Products Research: Comparison of Data Analysis Approaches and Application to Identification of Bioactive Compounds” (2016) are described below.

The structures appear in SMILES notation. Converted amounts (≈) assume the structure as drawn.

For assay [1], the system named is Staphylococcus aureus. Nature of the assay: Antimicrobial activity against Staphylococcus aureus SA1199 after 24 hrs by CLSI method. Conditions: SA1199, 24 h. It is filed as functional.
Assay [2] deals with Staphylococcus aureus. In words: Antimicrobial activity against methicillin-resistant Staphylococcus aureus USA300 LAC AH1263 after 24 hrs by CLSI method. The class given is functional. Conditions: USA300 LAC AH1263, 24 h.

The term MIC denotes the smallest concentration in the dilution series that meets the test's criterion for growth inhibition. Low values mean a more susceptible organism, high ones a less susceptible organism.

With `C[C@@H]1OC(=O)/C=C/[C@@H](O)[C@H](C)OC(=O)C[C@H](C)OC(=O)/C=C/[C@H]1O`, in assay [1], the minimal inhibitory concentration (MIC) turned out to be 219 µM (≈ 75 µg/mL).

The molecule `COc1cc(O)c2c(=O)oc3cc(O)cc(C)c3c2c1` yielded an MIC in assay [1] of 275 µM (≈ 74.9 µg/mL).

In the case of `COc1ccc2cc3[n+](cc2c1OC)CCc1cc2c(cc1-3)OCO2` [BERBERINE], the minimum inhibitory concentration (MIC) in assay [1] and in assay [2] was 446 µM in each case.
